The source of these data is PubChem BioAssay (NCI).

Several values for one entry are separate records, joined by “and”; a condition that tells them apart may be missing. Equal values may be shown once.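 96-well plates; 48 h exposure; 5 concentrations. Endpoints by linear interpolation between flanking doses. Not reached: highest tested concentration assigned. GI50 marks 50% less growth. TGI denotes the concentration required for complete inhibition of growth.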

Holding throughout (assay): NCI anticancer screen, dose series, 48 h
Assay [1] deals with HT29 colon.
Assay [2] relates to OVCAR-8 ovarian.
Assay [3] relates to IGROV1 ovarian.
For assay [4], the system named is T-47D breast.
Assay [5] relates to SF-539 CNS.
Assay [6] deals with NCI/ADR-RES ovarian.
Assay [7] deals with KM12 colon.
Assay [8] concerns HCT-116 colon.
The test system of assay [9] is UACC-257 melanoma.
In assay [10] the test system is SN12C renal.

On to `CC1=CC(C)(C)NN1C1=NS(=O)(=O)c2ccccc2N1C`, for which the TGI in assay [1], in [2], in assay [3], in [4], in assay [5] and in assay [6] was above 100 µM throughout. Moreover, the TGI in assay [7], in [8], in [9] and in [10] was above 100 µM in each case.
Take `Cc1cc2c(-c3nc4ccccn4c3N)c(O)c(O)cc2c(O)c1-c1c(C)cc2c(-c3nc4ccccn4c3N)c(O)c(O)cc2c1O`: the GI50 is 0.979 µM in [1]; 0.975 µM in assay [2]; 1.36 µM in assay [3]; 0.502 µM in [4]; 0.707 µM in assay [5]; 4.49 µM in assay [6]. Moreover, the GI50 in assay [7] is 0.227 µM; in assay [8], 0.163 µM; in [9], 2.9 µM; in assay [10], 0.82 µM. Further, the TGI in [1] was above 25 µM; in assay [2], above 25 µM; in assay [3] it was above 25 µM; in assay [4] it was above 25 µM; in [5] it was 20.9 µM; in assay [6] it was above 25 µM. The TGI in assay [7], in [8], in assay [9] and in assay [10] was above 25 µM throughout.
In the case of `O=[N+]([O-])c1cc([N+](=O)[O-])c(Nn2c3ccccc3c3ccccc32)c([N+](=O)[O-])c1`, the GI50 in assay [1] is 0.323 µM; in assay [2], 0.371 µM; in [3], 0.418 µM; in assay [4], 0.278 µM; in assay [5], 0.335 µM; in [6], 0.317 µM. Besides, the GI50 in [7] is 0.305 µM; in assay [8] it was 0.302 µM; in assay [9], 0.312 µM; in [10] it was 0.322 µM. For the same compound, the TGI in [1] was 8.43 µM and 3.43 µM; in [3], 25.4 µM and 21.2 µM; in [5], 15.8 µM and 5.1 µM; in assay [6], above 100 µM; in [7], 3.77 µM and 1.7 µM; in [8] it was 1.18 µM. Also, the TGI was 1.63 µM in assay [9]; 9.42 µM and 6.72 µM in assay [10].
With `CCc1nc2ccc(N=Nc3c(O)ccc4ccccc34)cc2[nH]1`, the TGI in assay [1] was found to be 44.1 µM; in assay [2], 21.6 µM; in assay [3], 36.8 µM; in [4], 59.7 µM; in assay [5], 35.4 µM; in [6], 54.8 µM. The TGI in assay [7] was 31.9 µM; in [8] it was 30.8 µM; in [9], 29.4 µM; in [10], 38.2 µM.
For the compound `C/C=C1/CC(C)C(C)(O)C(=O)OCC2C(O)CN3CCC(OC1=O)C23` (configuration not stated), the TGI in assay [1], in assay [2], in assay [3], in [4], in [5] and in [6] was above 100 µM in each case. For the same compound, the TGI in assay [7], in assay [8], in assay [9] and in assay [10] was above 100 µM throughout.
With `CCOc1ccn(-c2ccc(F)cc2)c(=O)c1C(=O)Nc1ccc(Oc2ccnc(N)c2Cl)c(F)c1`, the GI50 was 6.63 µM in [1]; 15.2 µM in [2]; 17.3 µM in assay [3]; 11.8 µM in assay [4]; 7.53 µM in assay [5]; 13.6 µM in [6]. The GI50 in [7] was 0.404 µM; in [8], 5.35 µM; in assay [9], 5.99 µM; in assay [10] it was 5.03 µM. Also, the TGI was 82.3 µM in [1]; above 100 µM in assay [2]; above 100 µM in assay [3]; 98 µM in [4]; 34.1 µM in [5]; above 65.7 µM in assay [6]. Further, the TGI in [7] is above 100 µM; in [8], 21.8 µM; in [9], 43.4 µM; in assay [10], above 100 µM.
Turning to `O=C1O/C(=C/c2ccccc2)C(c2ccccc2)=C1O`, the TGI in [1] is above 100 µM; in [2], above 100 µM; in [3] it was above 100 µM; in assay [4], 74.2 µM; in assay [5], above 100 µM; in assay [6] it was above 100 µM. Also, the TGI in [7], in assay [8], in [9] and in assay [10] was above 100 µM in each case.
As to `CCOP(=O)(OCC)C(C(=O)OC)C(=O)C(=O)Nc1cccc(O)c1` (configuration not stated), the TGI in assay [1], in assay [2], in assay [3], in assay [4], in assay [5] and in assay [6] was above 100 µM each time. Besides, the TGI in assay [7], in assay [8], in [9] and in [10] was above 100 µM each time.
For `CCN(CC)CCCC(C)N/C(=C1\C(=O)NC(=O)\C1=C(/NC(C)CCCN(CC)CC)c1cccc(OC)c1)c1cccc(OC)c1` (configuration not stated), the GI50 was 0.372 µM in assay [1]; 0.515 µM in assay [2]; 0.844 µM in [3]; 1.3 µM in assay [4]; 0.791 µM in assay [5]; 1.36 µM in assay [6]. Moreover, the GI50 in assay [7] was 0.835 µM; in [8], 0.45 µM; in assay [9], 0.842 µM; in assay [10] it was 1.27 µM. The TGI worked out at 2.01 µM in assay [1]; 3.09 µM in assay [2]; 2.35 µM in assay [3]; 3.7 µM in assay [4]; 1.51 µM in [5]; 5.04 µM in assay [6]. Moreover, the TGI in [7] was determined as 4.06 µM; in assay [8], 3.24 µM; in assay [9], 1.58 µM; in assay [10] it was 7.03 µM.
Take `N#Cc1cnc(Nc2cc(NC[C@H]3CNCCO3)c(C(F)(F)F)cn2)cn1`: the GI50 in assay [1] was 25.7 µM; in assay [2], 3.69 µM; in [3], 5.57 µM; in [4], 16.6 µM; in [5], 0.669 µM; in assay [6], 1.73 µM. Further, the GI50 in assay [7] was 11.4 µM; in [8] it was 23.3 µM; in assay [9], 19.3 µM; in assay [10], 17.7 µM. Also, the TGI was found to be 92 µM in assay [1]; 93 µM in [2]; 70.6 µM in assay [3]; 51.5 µM in assay [4]; 17.3 µM in [5]; 84.5 µM in assay [6]. Further, the TGI in assay [7] is 88.4 µM; in [8], above 100 µM; in assay [9], 45.8 µM; in assay [10], 83 µM.
As for `CC(=O)[C@H]1CCC/C=C/[C@@H]2C[C@H](O)C[C@H]2[C@H](O)/C=C/C(=O)O1`, the GI50 in [1] is 0.253 µM; in assay [2], 0.982 µM; in assay [3], 0.803 µM; in [4] it was 1.17 µM; in assay [5] it was 1.01 µM; in assay [6], 0.527 µM. The GI50 was 0.75 µM in assay [7], 0.337 µM in [8], 0.332 µM in assay [9] and 2.17 µM in assay [10]. The TGI was 1.44 µM in assay [1]; above 100 µM in assay [2]; above 24 µM in assay [3]; 3.63 µM in [4]; above 100 µM in assay [5]; 3.46 µM in assay [6]. The TGI in [7] was above 19.7 µM; in assay [8], 1.18 µM; in assay [10], above 100 µM.
`CCCCCC/C=C\CCCCCCCCCC1=C(CN2CCN(C)CC2)C(=O)C=C(OC)C1=O`: the TGI in assay [1] came out at 23.9 µM; in assay [2], 17 µM; in assay [3] it was 18.3 µM; in [4] it was 4.81 µM; in assay [5], 40.1 µM; in [6], 11.5 µM. Moreover, the TGI in assay [7] was 21 µM; in assay [8], 4.41 µM; in [9], 28.6 µM; in assay [10], 19.7 µM.
As to `Cc1cc(C)c(-c2c(N)cc(Br)cc2Br)c(N)c1`, the GI50 in assay [1] is 3.49 µM; in assay [2], 10.2 µM; in assay [3] it was 6.13 µM; in [4], 5.71 µM; in [5], 2.94 µM; in assay [6], 2.98 µM. In addition, the GI50 is 3.89 µM in assay [7], 4.35 µM in assay [8], 5.84 µM in assay [9] and 7.41 µM in [10]. Besides, the TGI in assay [1] came to 13.1 µM; in [2], 31.7 µM; in assay [3], 22.7 µM; in assay [4] it was 19.3 µM; in assay [5], 9.87 µM; in [6] it was 9.11 µM. In addition, the TGI in [7] worked out at 14.5 µM; in assay [8] it was 15.6 µM; in assay [9], 22.1 µM; in assay [10], 21.9 µM.
For `C=CCC(N[C@H](CO)c1ccccc1)c1cn(Cc2ccccc2Cl)c(=O)n(Cc2ccccc2Cl)c1=O` (some centres not stated), the GI50 in assay [1] is 11 µM; in assay [2], 15.2 µM; in assay [3], 13.5 µM; in assay [4] it was above 100 µM; in assay [5] it was 15 µM; in [6], 9.26 µM. For the same compound, the GI50 in [7] is 17.5 µM; in [8], 6.44 µM; in assay [9], 23.3 µM; in assay [10] it was 14.6 µM. For the same compound, the TGI is above 100 µM in assay [1]; above 100 µM in [2]; 66.3 µM in assay [3]; above 100 µM in assay [4]; 32.5 µM in assay [5]; above 100 µM in assay [6]. Besides, the TGI in assay [7] is 73.3 µM; in assay [8] it was 20.8 µM; in assay [9] it was 53.4 µM; in [10] it was 40.9 µM.
For `COc1ccc(/C=C2/SC(Nc3nc(-c4nc(NC5=NC(=O)/C(=C\c6ccc(OC)cc6)S5)sc4C)c(C)s3)=NC2=O)cc1`, the GI50 was 1.99 µM in assay [1]; 1.71 µM in assay [2]; 5.26 µM in assay [3]; 7.52 µM in assay [4]; 1.36 µM in assay [5]; 0.648 µM in assay [6]. In addition, the GI50 was 0.196 µM in assay [7], 1.2 µM in assay [8], 2.22 µM in assay [9] and 1.96 µM in assay [10]. Besides, the TGI in assay [1] is above 50 µM; in [2], 16.7 µM; in assay [3], above 50 µM; in [4], above 50 µM; in assay [5], 3.95 µM; in assay [6] it was 4.39 µM. Besides, the TGI in assay [7] was 5.77 µM; in assay [8] it was 9.78 µM; in assay [9], 15.4 µM; in assay [10] it was 9.19 µM.
On to `CO[C@H]1CC(O[C@@H]2/C(C)=C/C[C@@H]3C[C@@H](C[C@]4(CC[C@H](C)[C@@H](C5CCCCC5)O4)O3)OC(=O)[C@@H]3C=C(C)/C(=N/O)[C@H]4OC/C(=C\C=C\[C@@H]2C)[C@]43O)O[C@@H](C)C1O` (some centres not stated), for which the GI50 was 0.966 µM in assay [1]; 0.962 µM in assay [2]; 1.07 µM in assay [3]; 1.1 µM in assay [4]; 0.948 µM in assay [5]; 1.07 µM in assay [6]. The GI50 in [7] is 0.826 µM; in assay [8], 0.704 µM; in [9], 0.987 µM; in assay [10], 0.889 µM. Besides, the TGI in assay [1] came out at 2.05 µM; in assay [2], 2.41 µM; in assay [3] it was 2.69 µM; in [4] it was 3.09 µM; in [5], 1.93 µM; in assay [6], 2.9 µM. In addition, the TGI turned out to be 1.52 µM in assay [7], 1.4 µM in [8], 2.55 µM in [9] and 1.85 µM in assay [10].
Take `CCCCCCCC/C=C/CCCCCCCC1=NC(C)(C)CN1CCO`: the GI50 in assay [1] is 1.51 µM; in [2], 2.29 µM; in assay [3], 1.51 µM; in assay [4], 1.94 µM; in assay [5], 1.68 µM; in [6], 3.87 µM. The GI50 in [7] is 1.69 µM; in assay [8] it was 1.59 µM; in [9], 2 µM; in assay [10], 4.7 µM. For the same compound, the TGI in assay [1] was 3.1 µM; in [2], 4.74 µM; in assay [3], 2.9 µM; in assay [4], 4.34 µM; in assay [5], 3.07 µM; in assay [6], 13.9 µM. For the same compound, the TGI came to 3.06 µM in [7], 2.99 µM in assay [8], 3.81 µM in assay [9] and 18 µM in assay [10].
